For seven molecules, GI50 and TGI results are on record in PubChem BioAssay (NCI).

Several values for one entry are separate records, joined by “and”; a condition that tells them apart may be missing. Equal values may be shown once.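 Cultured in 96-well plates, cells were exposed to test compound for 48 hours across five concentrations. GI50 marks 50% less growth. TGI: total growth inhibition.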

Among the test systems are IGROV1 ovarian; UACC-62 melanoma; MDA-MB-435; CCRF-CEM leukemia; UO-31 renal; A498 renal; SW-620 colon; RPMI-8226 leukemia; HOP-62 NSCLC; SF-539 CNS.
Holding throughout (experiment): NCI tumour cell line growth inhibition, 48 h

Regarding `CC/C=C\C[C@H]1CC=C2C(=O)C=C[C@@H]2CC=CCCCC(=O)O[C@@H](CCCCC)CC=C2C(=O)C=C[C@@H]2CC=CCCCC(=O)O[C@@H](CCCCC)CC=C2C(=O)C=C[C@@H]2CC=CCCCC(=O)O[C@@H](CCCCC)CC=C2C(=O)C=C[C@@H]2CC=CCCCC(=O)O1`, the GI50 in the assay with IGROV1 ovarian was 2.32 µM; in the assay on UACC-62 melanoma it was 1.52 µM; with MDA-MB-435, 1.59 µM; in the assay on CCRF-CEM leukemia, 1.65 µM; with UO-31 renal it was 1.41 µM; in the assay on A498 renal, 2.25 µM. Moreover, the GI50 in the assay on SW-620 colon is 2.54 µM; in the assay on RPMI-8226 leukemia, 1.83 µM; with HOP-62 NSCLC, 1.71 µM; with SF-539 CNS it was 2.22 µM. For the same molecule, the TGI was 7.81 µM in the assay with IGROV1 ovarian; 3.59 µM in the assay on UACC-62 melanoma; 4.54 µM in the assay with MDA-MB-435; over 7.9 µM in the assay with CCRF-CEM leukemia; 2.84 µM with UO-31 renal; over 7.9 µM in the assay on A498 renal. The TGI in the assay with SW-620 colon was over 7.9 µM; in the assay on RPMI-8226 leukemia, 5.83 µM; in the assay with HOP-62 NSCLC it was 3.86 µM; in the assay on SF-539 CNS, over 7.9 µM.
Take `O=C(O)c1ccc(CN2CCC(CN[C@@H]3C[C@H]3c3ccccc3)CC2)cc1`: the GI50 in the assay on IGROV1 ovarian, in the assay on UACC-62 melanoma, with MDA-MB-435, with CCRF-CEM leukemia, in the assay on UO-31 renal and with A498 renal was over 100 µM throughout. For the same molecule, the GI50 in the assay on SW-620 colon, in the assay with RPMI-8226 leukemia, in the assay on HOP-62 NSCLC and in the assay on SF-539 CNS was over 100 µM each time. Also, the TGI with IGROV1 ovarian, with UACC-62 melanoma, in the assay on MDA-MB-435, in the assay on CCRF-CEM leukemia, in the assay on UO-31 renal and in the assay on A498 renal was over 100 µM throughout. For the same molecule, the TGI in the assay with SW-620 colon, in the assay with RPMI-8226 leukemia, in the assay with HOP-62 NSCLC and in the assay with SF-539 CNS was over 100 µM in each case.
`O=C1NC(=S)S/C1=C/c1ccc2c(c1)OCO2`: the GI50 in the assay with IGROV1 ovarian was 27.3 µM; in the assay on UACC-62 melanoma, over 100 µM; in the assay with MDA-MB-435 it was over 100 µM; in the assay with CCRF-CEM leukemia, over 100 µM; in the assay on UO-31 renal it was 5.8 µM; in the assay on A498 renal, 28.7 µM. For the same molecule, the GI50 in the assay with SW-620 colon, with RPMI-8226 leukemia, with HOP-62 NSCLC and in the assay with SF-539 CNS was over 100 µM each time. In addition, the TGI in the assay with IGROV1 ovarian, in the assay on UACC-62 melanoma, in the assay with MDA-MB-435, in the assay on CCRF-CEM leukemia, in the assay on UO-31 renal and with A498 renal was over 100 µM in each case. The TGI in the assay on SW-620 colon, with RPMI-8226 leukemia, with HOP-62 NSCLC and with SF-539 CNS was over 100 µM in each case.
With `O=C1C=CC(=O)C2C1C1(Cl)C(Cl)=C(Cl)C2(Cl)C1(Cl)Cl` (centres undefined), the GI50 in the assay with IGROV1 ovarian is 2.92 µM; in the assay with UACC-62 melanoma, 5.19 µM; in the assay with MDA-MB-435, 1.69 µM; in the assay with CCRF-CEM leukemia it was 3.76 µM; with UO-31 renal, 3.41 µM; in the assay with A498 renal it was 1.46 µM. Besides, the GI50 is 3.94 µM with SW-620 colon, 4.78 µM in the assay on RPMI-8226 leukemia, 10.6 µM in the assay with HOP-62 NSCLC and 6.46 µM in the assay on SF-539 CNS. Further, the TGI with IGROV1 ovarian is 19.2 µM; with UACC-62 melanoma it was 19.2 µM; in the assay on MDA-MB-435, 4.06 µM; in the assay on CCRF-CEM leukemia, over 100 µM; in the assay with UO-31 renal, 16.1 µM; in the assay with A498 renal, 5.8 µM. The TGI in the assay with SW-620 colon is 15.1 µM; in the assay with RPMI-8226 leukemia it was over 100 µM; in the assay on HOP-62 NSCLC it was 26.2 µM; in the assay on SF-539 CNS, 23.2 µM.
In the case of `C=CC(=O)N1CCC(Oc2cc3c(Nc4ccc(Cl)c(Cl)c4F)ncnc3cc2OC)CC1`, the GI50 was 0.0855 µM and 0.0104 µM in the assay with IGROV1 ovarian; 3.25 µM and 2.15 µM in the assay on UACC-62 melanoma; 2.23 µM and 1.8 µM in the assay on MDA-MB-435; 2.33 µM and 3.37 µM in the assay with CCRF-CEM leukemia; 0.0493 µM and 0.0566 µM in the assay on UO-31 renal; 0.365 µM and 0.179 µM in the assay on A498 renal. Further, the GI50 in the assay on SW-620 colon is 10.3 µM and 4.24 µM; with RPMI-8226 leukemia it was 6.49 µM and 3.93 µM; with HOP-62 NSCLC it was 3.88 µM and 3.1 µM; in the assay with SF-539 CNS, 1.57 µM and 1.78 µM. For the same molecule, the TGI in the assay on IGROV1 ovarian was 4.39 µM and 1.72 µM; with UACC-62 melanoma, 18.7 µM and > 10 µM; with MDA-MB-435, 8.3 µM and 4.7 µM; with CCRF-CEM leukemia, 55.9 µM and > 10 µM; with UO-31 renal, 4.75 µM and 3.72 µM; in the assay on A498 renal it was 1.92 µM and 0.834 µM. The TGI in the assay on SW-620 colon was 34.2 µM and > 10 µM; with RPMI-8226 leukemia it was 42.6 µM and > 10 µM; with HOP-62 NSCLC, 25.1 µM and > 10 µM; in the assay on SF-539 CNS, 10 µM and 8.4 µM.
As to `CC(=O)OC1OC([C@H]2c3cccc(O)c3C(=O)c3c(O)cc(C)cc32)C(O)C(O)C1O` (some centres undefined), the GI50 with IGROV1 ovarian was 0.224 µM; in the assay on UACC-62 melanoma, under 0.0219 µM; with MDA-MB-435, 0.0817 µM; in the assay on CCRF-CEM leukemia, 0.444 µM; with UO-31 renal it was 0.138 µM; with A498 renal, 0.105 µM. Moreover, the GI50 in the assay on SW-620 colon is 0.112 µM; in the assay on RPMI-8226 leukemia it was 0.0779 µM; with HOP-62 NSCLC, 0.065 µM; in the assay on SF-539 CNS it was 0.121 µM. Moreover, the TGI in the assay with IGROV1 ovarian is over 100 µM; in the assay with UACC-62 melanoma, 1.41 µM; with MDA-MB-435, 2.72 µM; with CCRF-CEM leukemia it was 2.25 µM; in the assay on A498 renal, 0.589 µM; with SW-620 colon, 14.1 µM. Also, the TGI in the assay on RPMI-8226 leukemia came out at 0.2 µM; in the assay with HOP-62 NSCLC, 1.93 µM; with SF-539 CNS it was 7.08 µM.
`Cc1cc(Cl)ccc1OCC(=O)Nc1nc2c(Cl)cccc2s1`: the GI50 in the assay on IGROV1 ovarian was over 100 µM; with UACC-62 melanoma, 7.41 µM; in the assay on MDA-MB-435, over 100 µM; in the assay on CCRF-CEM leukemia, 6.94 µM; in the assay on UO-31 renal, over 100 µM; in the assay on A498 renal it was over 100 µM. The GI50 is over 100 µM with SW-620 colon, 18.7 µM in the assay with RPMI-8226 leukemia, 19.6 µM in the assay with HOP-62 NSCLC and 17.4 µM in the assay on SF-539 CNS. Also, the TGI is over 100 µM with IGROV1 ovarian; over 100 µM in the assay on UACC-62 melanoma; over 100 µM in the assay with MDA-MB-435; 35.7 µM in the assay on CCRF-CEM leukemia; over 100 µM in the assay on UO-31 renal; over 100 µM with A498 renal. In addition, the TGI is over 100 µM in the assay with SW-620 colon, over 100 µM in the assay on RPMI-8226 leukemia, 55.1 µM in the assay on HOP-62 NSCLC and over 100 µM in the assay with SF-539 CNS.
